Target: T1, HMG-like dorsal switch protein 1 (rSe-DSP1)
T1 construct: recombinant DSP1 protein (rSe-DSP1)
Experiment: thermal shift assay with fitted Kd
Assay type: binding, Spodoptera exigua

`N#Cc1ccccc1C(=O)O` [CBA, o-Cyanobenzoic acid] was tested. Which Kd did it give?
Its Kd is 246 µM.

Which Kd does the source give for `O=C1NC(=O)c2ccccc21` [PM, Phthalimide] here?
The Kd was 197 µM.

How did the Kd turn out when `CCOc1cc(O)ccc1OC` [EMP, 3-Ethoxy-4-Methoxyphenol] was run?
The Kd was 148 µM.

Reference: publication PMC10950498, “Ligands of HMG-like dorsal switch protein 1 of Spodoptera exigua leads to mortality in diamondback moth, Plutellaxylostella” (Heliyon, 2024)
